According to PubChem BioAssay (NCI):
Several values for one entry are separate records, joined by “and”; a condition that tells them apart may be missing. Equal values may be shown once.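 How tested: cells in 96-well plates exposed to compound for 48 hours at five concentrations. GI50 = concentration required for 50% inhibition of growth. Definition used: TGI = concentration required for complete inhibition of growth.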

Columns and labels:
Experiment in all cases: NCI tumour cell line growth inhibition, 48 h
NCI-H23 lung = system: NCI-H23 lung
HCT-15 colon = system: HCT-15 colon
NCI/ADR-RES ovarian = system: NCI/ADR-RES ovarian
DU-145 prostate = system: DU-145 prostate
BT-549 breast = system: BT-549 breast
T-47D breast = system: T-47D breast
RPMI-8226 leukemia = system: RPMI-8226 leukemia
LOX IMVI melanoma = system: LOX IMVI melanoma

Structure (SMILES) | TGI (NCI-H23 lung) | TGI (HCT-15 colon) [µM] | TGI (NCI/ADR-RES ovarian) | TGI (DU-145 prostate) [µM] | TGI (BT-549 breast) | GI50 (T-47D breast) [µM] | TGI (T-47D breast) | GI50 (RPMI-8226 leukemia) [µM] | TGI (RPMI-8226 leukemia) [µM] | GI50 (HCT-15 colon) [µM] | GI50 (LOX IMVI melanoma) [µM] | TGI (LOX IMVI melanoma) | GI50 (NCI/ADR-RES ovarian) [µM] | GI50 (DU-145 prostate) [µM] | GI50 (BT-549 breast) [µM] | GI50 (NCI-H23 lung) [µM]
CC(C)c1ccc2nc3ccc(C(=O)NCCN4CCN(c5ccccc5)CC4)cn3c(=O)c2c1 | > 100 µM | > 100 | > 100 µM | > 100 | > 100 µM |  |  |  |  |  |  |  |  |  |  | 
CC(C)(C)c1cc(-c2nc3c(F)c(F)c(F)c(F)c3[nH]2)cc(C(C)(C)C)c1O |  | > 100 | > 100 µM | > 100 | > 100 µM | > 100 | > 100 µM | > 100 | > 100 | > 100 | > 100 | > 100 µM | > 100 | > 100 | > 100 | 
CCCCCCNCCCNc1c2ccccc2nc2cccc([N+](=O)[O-])c12 | 0.0253 µM and 0.0599 µM | > 100 | 1.66 µM and 2.8 µM |  | 0.271 µM and 0.448 µM | 0.0503 | 0.288 µM and 0.457 µM |  |  |  | 0.044 | 0.0818 µM and 0.295 µM | 0.54 |  | 0.212 | 0.0159
CCOCCOC[C@H]1CCCN(c2ccnc3sc(C(N)=O)c(N)c23)C1 | > 100 µM | > 100 |  | > 100 | > 100 µM | 3.9 | > 100 µM | 1.65 | > 100 | > 100 | 29.3 | > 100 µM |  | 73.1 | 9.35 | 10.6
Cc1c(-c2nnc(-c3cc(Cl)c(Cl)cc3Cl)o2)nnn1-c1ccnc2c(C(F)(F)F)cccc12 | 81.1 µM | > 100 | 57.1 µM | 41.6 |  | 21.7 | 77.4 µM | 19.9 | 54.1 | 31.5 | 19.7 | 38.7 µM | 22.7 | 19.5 |  | 26.5
O=C(O)c1ccccc1Nc1ccc2nnc(-c3ccncc3)n2n1 | 54.2 µM | 66.3 | 77.4 µM | 25.6 | 8.33 µM | 4.3 | 22.3 µM |  |  | 6.88 | 1.97 | 4.1 µM | 18.8 | 11.5 | 2.59 | 14.1
COc1ccc(C(c2cc3c(cc2O)OCO3)N2CCOCC2)cc1OC (configuration not stated) | 15.9 µM | 15.8 | 20 µM | 24.4 | 43.8 µM |  | 45.8 µM |  |  |  |  | 16.5 µM |  |  |  | 
Cc1ccc(NC(=O)c2cc3ccccc3cc2O)c(C)c1.Cc1ccc(NC(=O)c2cc3ccccc3cc2[O-])c(C)c1.[Ni+2] | 10.1 µM | 17.2 | 8.6 µM | 13.2 | 7.55 µM | 3.08 | 14.8 µM | 1.94 | 6.1 | 3.24 |  |  | 2.45 | 3.27 | 2.44 | 2.48
Nc1ccccc1C#Cc1ccccc1C#Cc1cnccn1 | 30.5 µM | 34.6 | 37.4 µM | 28.1 | 28.7 µM |  |  | 14.8 | 50.2 | 16.6 | 17 | 33.7 µM | 16.2 | 14.5 | 13.7 | 16.8
